Read-outs that look alike come from different tables or passages of the source. One block for each molecule: values may come before it.
Legend:
[1] = tested on: LPS-induced TNFα production in mouse peritoneal macrophages; experiment: LPS-induced TNFα production in mouse peritoneal macrophages (ELISA); assay type: cell-based; details: for IC50 / TNFα production inhibitory ability compared with butein (FIG. 1): mouse peritoneal macrophages; for IC50: 100 ng/ml LPS 24 h, measured twice, mean ± standard deviation, read-out: IC50, dose-dependent inhibition of TNFα production in macrophages; for IC50 value compared with positive control butein: TNFα production in macrophages; for TNFα production inhibitory ability compared with butein (FIG. 1): compound 20 μM, LPS-induced
Procedure: To isolate peritoneal macrophages, male Balb/c mice were intraperitoneally injected with 2 ml of 3.5% sterile thioglycolate (B D, Sparks, Md., USA) 4 days before being sacrificed. Mice were sacrificed by cervical dislocation, and peritoneal secretory cells were aseptically isolated through peritoneal washing with cold DMEM (HyClone, Logan, Utah, USA) containing 10% FBS (fetal bovine serum; HyClone) and 1% penicillin-streptomycin. After centrifugation, cells were resuspended and counted using a TC20 Cell Counter (Bio-Rad Laboratories, Hercules, Calif., USA). Peritoneal secretory cells were left in a 24-well plate overnight at 37° C., and non-adherent cells were removed. The cells were then stimulated with 100 ng/ml lipopolysaccharide (LPS) for 24 hours. The supernatant was collected during cytokine analysis, and the level of TNFα in the supernatant was measured using BD OptEIA mouse ELISA sets (BD Biosciences, San Diego, Calif., USA) according to the manufacturer's protocol. […] IC50 (μM) values were measured twice, respectively, and expressed as mean±standard deviation.

[2] = tested on: lymphedema induced in mice; experiment: Prophylactic effect on lymphedema formation, surgically induced murine lymphedema model (volume); assay type: in vivo, mouse; details: 7th day after surgery, oral administration 7 days before surgery, then once every two days, vs control group
Procedure: All animal tests in the following examples were performed after obtaining approvals by the Institutional Animal Care and Use Committee (IACUC) of Sungkyunkwan University School of Medicine (Approval No.: […]-20150037). All methods were performed according to the approved guidelines. […] Briefly, major lymphatic sites including inguinal lymph nodes, popliteal lymph nodes, deep inguinal lymph nodes and femoral lymphatic vessels were removed, and the lower right leg of the mouse was limitedly cauterized under anesthesia.
Compounds 1, 7m, and 14a were each orally administered to mice for 7 days before surgical induction of lymphedema in mice.
On the other hand, in the control group, the compound 1 treatment group, the compound 7m treatment group, and the compound 14a treatment group, lymphedema was induced through surgery. After surgery, the compounds were administered once every two days.
The volume of lymphedema was measured on the 7th day after surgery, and the size of the lymphedema was recorded using a caliper ruler by a person who was blinded to the treatment status of the mice.

[3] = Pharmacokinetic analysis in mice after I.V. and oral administration; assay type: in vivo, mouse; details: for BA (bioavailability): (AUCpo/AUCiv)×100; for AUC(0-inf) / Cmax: mouse, plasma; for Cmax: read-out: Cmax (maximum plasma concentration)
Procedure: Compounds were administered to 5-week-old male CD-1 mice through 1 mg/kg tail vein administration (administration volume of 5 mL/kg), 20 mg/kg oral administration, and 100 mg/kg oral administration, respectively. Three mice were used for each independent experiment. Blood samples were taken in an amount of 20 μL to 30 μL via the saphenous vein at 5, 15, 30, 60, 120, 180, 360, and 1440 minutes.
In addition, pharmacokinetic parameters were calculated from non-compartmental analysis using Win Non-lin.
In Table 3, T1/2 denotes the terminal half-life, Cmax denotes the maximum plasma concentration, AUC-O denotes the area under the plasma concentration-time curve from time zero to infinity, and indicates exposure concentration of whole blood, and BA represents bioavailability expressed as (AUCpo/AUCiv)×100. […] Cmax and AUC∞ are mean±SD values obtained from three male ICR mice. Regarding blood exposure during systemic circulation of the compound, the compound was orally administered at an amount of 100 mg/kg, and then, AUC (area under the curve) was measured, and the obtained measurements were compared.

TNFα = experiment: mRNA expression of TNFα in lymphedema tissue; assay type: in vivo; details: 7th day after surgery, mouse
Text: As a result, it was confirmed that the expression level of TNFα mRNA was decreased in the compound 1 treatment group and the compound 14a treatment group (with respect to the control group, *: P<0.05; with respect to compound 1, #: P<0.05).

[4] = Physicochemical properties (pKa, logP, solubility)
Text: Compound 1 is butein and the therapeutic effect on lymphedema thereof is disclosed in Korean Patent Publication No. 10-1533197 (published on Jul. 2, 2015).

[5] = tested on: PPARγ and a target protein Fabp4; experiment: Expression of PPARγ and Fabp4 in lymphedema tissue (western blot, mRNA); assay type: in vivo; details: mouse
PPARγ = experiment: Immunofluorescence staining of PPARγ in epidermal layer of lymphedema tissue; assay type: in vivo; details: mouse
Text: (§1) Tissue samples were collected on the 7th day after surgery to induce lymphedema at a location 15 mm-25 mm from the right leg of the mouse. The harvested tissue samples were fixed with 10% formalin solution, and the specimens were cut to a thickness of 5 μm. Sections were deparaffinized in 100% xylene, rehydrated with a series of 100% ethanol, 95% ethanol, 90% ethanol, 80% ethanol, and 70% ethanol, and washed with water. Sections were reacted with hematoxylin solution at room temperature. After washing in PBS, sections were stained with eosin at room temperature. Images were acquired by a Pannoramic viewer microscope (3[…] Ltd., Hungary). Prepared slides were incubated using anti-mouse PPARγ (Santa Cruz Biotechnology, USA) and Alexa Fluor 488 and DAPI (Life Technologies, USA). Samples were analyzed using a Nikon ECLIPSE 80i microscope (Nikon Instruments Inc., Japan).
In addition, peroxisome […] (PPARγ) is a major regulator of lipogenesis, and as shown in FIG. 4B showing the results of immunofluorescence staining, the distribution of PPARγ in the epidermal layer of lymphedema tissue after treatment with compound 1 and compound 14a was suppressed.

lymphedema tissue = experiment: Histological (H&E) analysis of lymphedema tissue of the right hind leg; assay type: in vivo; details: 7th day after surgery, right hind leg of mouse
Text: as §1
In FIG. 3A, the scale bar of the upper panel is 500 μm, and the scale bar of the lower panel is 100 μm.
In FIG. 4A, the scale bar of the upper panel is 200 μm, and the scale bar of the lower panel is 100 μm.

[6] = Mus musculus, Peritoneal macrophage, 24 h
[7] = po, P.O, 20 mg/Kg, male CD-1 mice
[8] = water solubility, read-out: Solubility

melting point: 80.4 °C
SMILES: CC(C)Oc1cc(O)ccc1C(=O)/C=C/c1ccc(O)c(O)c1 [7j, (E)-3-(3,4-dihydroxyphenyl)-1-(4-hydroxy-2-isopropoxyphenyl)prop-2-en-1-one]

melting point: 162.9 °C
SMILES: COc1ccc(C(=O)/C=C/c2ccc(O)c(O)c2)c(OC)c1 [7k, (E)-3-(3,4-dihydroxyphenyl)-1-(2,4-dimethoxyphenyl)prop-2-en-1-one]

melting point: 185.7 °C | IC50 [1, 6]: 18.9 ± 1.15 µM
SMILES: Cc1ccc(C(=O)Oc2cc(O)ccc2C(=O)/C=C/c2ccc(O)c(O)c2)cc1 [compound 14b, (E)-2-(3-(3,4-dihydroxyphenyl)acryloyl)-5-hydroxyphenyl 4-methylbenzoate]

melting point: 102.8 °C
SMILES: O=C(Oc1cc(O)ccc1C(=O)/C=C/c1ccc(O)c(O)c1)c1ccc(Cl)cc1 [compound 14d]

Cmax (maximum plasma concentration) ([3]; I.V, 1 mg/Kg, male CD-1 mice): 41 ng/mL | Tmax ([3]; I.V, 1 mg/Kg, male CD-1 mice): 6 min | Tmax ([3]; P.O, 20 mg/Kg, male CD-1 mice): 18 min | BA (bioavailability) ([3]; P.O, 20 mg/Kg, male CD-1 mice): 15% | Tmax ([3]; P.O, 100 mg/Kg, male CD-1 mice): 18 min | BA (bioavailability) ([3]; P.O, 100 mg/Kg, male CD-1 mice): 37% | terminal half-life ([3]; mice): too short terminal half-life | AUC(0-inf) ([3]; iv, I.V, 1 mg/Kg, male CD-1 mice): 6.7 ng·h/mL | AUC(0-inf) [3, 7]: 21 ng·h/mL | Cmax [3, 7]: 43 ng/mL | Cmax ([3]; po, P.O, 100 mg/Kg, male CD-1 mice): 601 ng/mL | logP (partition coefficient) [4]: 0.42 | solubility [4, 8]: 21 µg/mL | solubility ([4]; water, read-out: water solubility): 79 µM | IC50 [1, 6]: 43 µM | IC50 [1]: 43.3 ± 1.72 µM
SMILES: O=C(/C=C/c1ccc(O)c(O)c1)c1ccc(O)cc1O [compound 1, (E)-1-(2,4-dihydroxyphenyl)-3-(3,4-dihydroxyphenyl)prop-2-en-1-one, reference compound]
volume of lymphedema reduced by [2]: 52% | expression level of TNFα mRNA in lymphedema tissue (FIG. 3B) (TNFα): decreased | levels of PPARγ and Fabp4 mRNA (FIG. 4D) ([5]; lymphedema tissue): superior efficacy compared to the control group | expression of PPARγ and Fabp4 in lymphedema tissue (western blot, FIG. 4C) [5]: reduced the expression of PPARγ | distribution of PPARγ in the epidermal layer of lymphedema tissue (FIG. 4B) (PPARγ): suppressed | development of adipose tissue in the epidermal layer (H&E, FIG. 4A) (lymphedema tissue): inhibiting the development of adipose tissue in the epidermal layer | inhibition at 20 µM ([1]; Mus musculus, Peritoneal macrophage, treated in vitro at 20 μM, read-out: efficacy (inhibition)): 10%

melting point: 252.4 °C
SMILES: O=C(/C=C/c1ccc(F)c(O)c1)c1ccc(O)cc1O [7d, (E)-1-(2,4-dihydroxyphenyl)-3-(4-fluoro-3-hydroxyphenyl)prop-2-en-1-one]

melting point: 206.4 °C
SMILES: COc1ccc(/C=C/C(=O)c2ccc(O)cc2O)cc1O [7b, (E)-1-(2,4-dihydroxyphenyl)-3-(3-hydroxy-4-methoxyphenyl)prop-2-en-1-one]

melting point: 190.9 °C | IC50 [1, 6]: 18.6 ± 1.5 µM
SMILES: Cc1ccc(C(=O)/C=C/c2ccc(O)c(O)c2)cc1 [compound 7l, (E)-3-(3,4-dihydroxyphenyl)-1-(p-tolyl)prop-2-en-1-one]
IC50 value compared with positive control butein [1]: significantly superior IC50 values compared to butein

melting point: 208.2 °C | IC50 [1, 6]: 48.4 ± 2.35 µM
SMILES: Cc1cc(O)ccc1C(=O)/C=C/c1ccc(O)c(O)c1 [compound 7h, (E)-3-(3,4-dihydroxyphenyl)-1-(4-hydroxy-2-methylphenyl)prop-2-en-1-one]

melting point: 161.1 °C | IC50 [1, 6]: 20.8 ± 1.62 µM
SMILES: COc1ccc(C(=O)Oc2cc(O)ccc2C(=O)/C=C/c2ccc(O)c(O)c2)cc1 [compound 14c, (E)-2-(3-(3,4-dihydroxyphenyl)acryloyl)-5-hydroxyphenyl 4-methoxybenzoate]

melting point: 36.7 °C
SMILES: O=C(Oc1ccc(C(=O)/C=C/c2ccc(OC(=O)c3ccccc3)c(OC(=O)c3ccccc3)c2)c(OC(=O)c2ccccc2)c1)c1ccccc1 [compound 8b, (E)-4-(3-(2,4-bis(benzoyloxy)phenyl)-3-oxoprop-1-en-1-yl)-1,2-phenylene dibenzoate]
TNFα production inhibitory ability compared with butein (FIG. 1) [1]: significantly better TNFα production inhibitory ability than the positive control butein treatment group

logP (partition coefficient) [4]: 3.77 | solubility [4, 8]: 28 µg/mL | IC50 [1, 6]: 17.3 ± 2.11 µM
SMILES: O=C(/C=C/c1ccc(O)c(O)c1)c1ccc(Cl)cc1 [compound 7m, (E)-1-(4-chlorophenyl)-3-(3,4-dihydroxyphenyl)prop-2-en-1-one]
volume of lymphedema reduced by [2]: 53% | IC50 value compared with positive control butein [1]: significantly superior IC50 values compared to butein

SMILES: CC(=O)Oc1ccc(C(=O)/C=C/c2ccc(OC(C)=O)c(OC(C)=O)c2)c(OC(C)=O)c1 [compound 8a, (E)-4-(3-(2,4-diacetoxyphenyl)-3-oxoprop-1-en-1-yl)-1,2-phenylene diacetate]
melting point: 131.3 °C | IC50 [1, 6]: 12.8 ± 1.24 µM | IC50 value compared with positive control butein [1]: significantly superior IC50 values compared to butein | TNFα production inhibitory ability compared with butein (FIG. 1) [1]: significantly better TNFα production inhibitory ability than the positive control butein treatment group

melting point: 207.8 °C
SMILES: O=C(/C=C/c1ccc(O)c(O)c1)c1ccc(O)cc1F [7g, (E)-3-(3,4-dihydroxyphenyl)-1-(2-fluoro-4-hydroxyphenyl)prop-2-en-1-one]

Reference: patent US20230099567A1, “COMPOSITION FOR TREATMENT, PREVENTION, OR AMELIORATION OF LYMPHEDEMA” (RAPPELER CO., LTD., priority 2020, published 2023)
